Data reported in patent US20100331315A1, “RHODANINES AND RELATED HETEROCYCLES AS KINASE INHIBITORS” (priority 2009, published 2010).
Like-named read-outs stand apart in the source and are kept apart here.

What was measured:
recombinant PIM-1 = recombinant PIM-1 (Homo sapiens, UniProt P11309); test: PIM-1 assay (33P-ATP filter plate); format: biochemical; details: read-out: PIM1: IC50
Description: The following procedure was used to assay the PIM-1 kinase activity of compounds of the invention. Other methods for assaying PIM-1 and other PIM kinases, as well as methods to assay for activity against the various kinases are known in the art.
In a final reaction volume of 50 ul, recombinant PIM-1 (1 ng) was incubated with 12 mM MOPS pH 7.0, 0.4 mM EDTA, glycerol 1%, brij 35 0.002%, 2-mercaptoethanol 0.02%, BSA 0.2 mg/ml, 100 uM KKRNRTLTK, 10 mM MgAcetate, 15 uM ATP, [γ-^33P-ATP] (specific activity approx. 500 cpm/pmol), DMSO 4% and test inhibitor compound at the required concentration. The reaction was initiated by the addition of the Magnesium ATP mixture. After 40 min incubation at 23° C., the reactions were quenched by the addition of 100 ul 0.75% Phosphoric acid, and the labeled peptide collected by filtration through a phosphocellulose filter plate. The plate was washed 4 times with 0.075% phosphoric acid (100 ul per well) and then, after the addition of scintillation fluid (20 ul per well), the counts were measured by a scintillation counter.

recombinant human CK2 = target: T1, recombinant human CK2 (Homo sapiens, UniProt P68400); test: CK2 assay (cell-free, 33P-ATP filter plate); format: biochemical
T1 construct: purchased Upstate
T1 sequence (P68400 whole entry): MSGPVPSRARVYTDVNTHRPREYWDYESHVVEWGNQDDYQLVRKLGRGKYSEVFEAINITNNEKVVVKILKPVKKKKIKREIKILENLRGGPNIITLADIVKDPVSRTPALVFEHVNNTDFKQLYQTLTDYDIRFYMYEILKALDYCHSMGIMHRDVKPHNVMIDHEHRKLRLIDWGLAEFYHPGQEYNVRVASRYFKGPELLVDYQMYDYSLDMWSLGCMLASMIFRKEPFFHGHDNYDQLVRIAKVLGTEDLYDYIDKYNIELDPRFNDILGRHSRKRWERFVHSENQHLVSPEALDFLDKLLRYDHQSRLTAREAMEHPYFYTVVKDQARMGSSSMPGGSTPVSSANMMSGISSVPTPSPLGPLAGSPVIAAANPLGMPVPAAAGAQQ
T1 sequence (P67870 whole entry partner): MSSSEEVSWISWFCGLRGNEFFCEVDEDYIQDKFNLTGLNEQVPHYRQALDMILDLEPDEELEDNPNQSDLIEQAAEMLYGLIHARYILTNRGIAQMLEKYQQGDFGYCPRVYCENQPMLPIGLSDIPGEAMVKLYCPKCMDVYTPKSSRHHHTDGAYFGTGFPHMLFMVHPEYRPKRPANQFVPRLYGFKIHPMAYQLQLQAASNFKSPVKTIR
Description: Modulatory activity of compounds described herein was assessed in vitro in cell-free CK2 assays by the following method.
Test compounds in aqueous solution were added at a volume of 10 microliters, to a reaction mixture comprising 10 microliters Assay Dilution Buffer (ADB; 20 mM MOPS, pH 7.2, 25 mM beta-glycerolphosphate, 5 mM EGTA, 1 mM sodium orthovanadate and 1 mM dithiothreitol), 10 microliters of substrate peptide (RRRDDDSDDD, dissolved in ADB at a concentration of 1 mM), 10 microliters of recombinant human CK2 (25 ng dissolved in ADB; Upstate). Reactions were initiated by the addition of 10 microliters of ATP Solution (90% 75 mM MgCl2, 75 micromolar ATP dissolved in ADB; 10% [γ-^33P]ATP (stock 1 mCi/100 μl; 3000 Ci/mmol (Perkin Elmer) and maintained for 10 minutes at 30 degrees C. The reactions were quenched with 100 microliters of 0.75% phosphoric acid, then transferred to and filtered through a phosphocellulose filter plate (Millipore). After washing each well 5 times with 0.75% phosphoric acid, the plate was dried under vacuum for 5 min and, following the addition of 15 ul of scintillation fluid to each well, the residual radioactivity was measured using a Wallac luminescence counter.

K-562 = test: Alamar Blue cell proliferation assay, K-562; format: cell-based; details: Homo sapiens
Description: (§1) A representative cell-proliferation assay protocol using Alamar Blue dye (stored at 4° C., use 20 ul per well) is described hereafter.
(§2) a. Split and trypsinize cells.
(§3) b. Count cells using hemocytometer.
(§4) c. Plate 4,000-5,000 cells per well in 100 μl of medium and seed into a 96-well plate according to the following plate layout. Add cell culture medium only to wells B10 to B12. Wells B1 to B9 have cells but no compound added.
(§5) d. Add 100 μl of 2× drug dilution to each well in a concentration shown in the plate layout above. At the same time, add 100 μl of media into the control wells (wells B10 to B12). Total volume is 200 μl/well.
(§6) e. Incubate four (4) days at 37° C., 5% CO2 in a humidified incubator.
(§7) f. Add 20 μl Alamar Blue reagent to each well.
(§8) g. Incubate for four (4) hours at 37° C., 5% CO2 in a humidified incubator.
(§9) h. Record fluorescence at an excitation wavelength of 544 nm and emission wavelength of 590 nm using a microplate reader.
(§10) In the assays, cells are cultured with a test compound for approximately four days, the dye is then added to the cells and fluorescence of […] dye is detected after approximately four hours. Different types of cells can be utilized in the assays (e.g., HCT-116 human colorectal carcinoma cells, PC-3 human prostatic cancer cells and MiaPaca human pancreatic carcinoma cells).

[1] = system: PC-3 human prostatic cancer cells; test: Alamar Blue cell proliferation assay, PC3; format: cell-based
Description: as §1, §2, §3, §4, §5, §6, §7, §8, §9, §10

MV-4-11 = test: Alamar Blue cell proliferation assay, MV-4-11; format: cell-based; details: Homo sapiens, MV4-11, MV-4-11, Table 1, read-out: AB: MV-4-11 IC50
Description: as §1, §2, §3, §4, §5, §6, §7, §8, §9, §10

[2] = system: MiaPaca human pancreatic carcinoma cells; test: Alamar Blue cell proliferation assay, MiaPaCa; format: cell-based; details: MIA PaCa-2, Table 1, read-out: AB: MiaPaCa IC50
Description: as §1, §2, §3, §4, §5, §6, §7, §8, §9, §10

MDAMB231 = test: Alamar Blue cell proliferation assay, MDAMB231; format: cell-based; details: Homo sapiens, MDA-MB-231, MDAMB231, Table 1, read-out: AB: MDAMB231 IC50
Description: as §1, §2, §3, §4, §5, §6, §7, §8, §9, §10

[3] = K562, K-562, Table 4, read-out: AB: K-562 IC50
[4] = PC3, Table 4, read-out: AB: PC3 IC50
[5] = K562, K-562, Table 1, read-out: AB: K-562 IC50
[6] = PC-3, PC3, Table 1, read-out: AB: PC3

Chain of recombinant PIM-1 (P11309 whole entry): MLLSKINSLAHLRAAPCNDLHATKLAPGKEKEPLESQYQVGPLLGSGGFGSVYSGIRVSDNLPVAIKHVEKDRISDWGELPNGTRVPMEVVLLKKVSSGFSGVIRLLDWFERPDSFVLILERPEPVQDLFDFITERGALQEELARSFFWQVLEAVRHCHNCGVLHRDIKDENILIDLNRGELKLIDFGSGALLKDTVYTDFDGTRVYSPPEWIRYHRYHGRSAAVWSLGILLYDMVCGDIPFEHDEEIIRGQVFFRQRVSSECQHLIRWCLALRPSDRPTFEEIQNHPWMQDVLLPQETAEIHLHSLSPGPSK

Row | Compound | IC50 (recombinant PIM-1; Table 1) [µM] | IC50 (recombinant human CK2; Table 1) [µM] | IC50 (K-562; [5]) [µM] | IC50 [1, 6] [µM] | IC50 [2] [µM] | IC50 (MDAMB231) [µM] | further results
1 | CN1CCCN(C(=O)c2ccccc2-c2ccc(/C=C3\SC(=S)NC3=O)o2)CC1 | 1.29 | > 5 |  |  |  |  | 
2 | CN1CCCN(c2cncc(-c3ccc(/C=C4\SC(=O)NC4=O)o3)n2)CC1 |  |  |  |  |  |  | IC50 (K-562; [3]): 0.146 µM; IC50 [1, 4]: > 10 µM; IC50 (recombinant PIM-1; Table 4): 0.022 µM; IC50 (recombinant human CK2; Table 4): 0.006 µM
3 | CN1C(=O)NC(=O)/C1=C\c1ccc(-c2cccc(C(=O)O)c2)o1 |  |  |  |  |  |  | IC50 (recombinant PIM-1; Table 3): > 5 µM; IC50 (recombinant human CK2; Table 3): 1.46 µM
4 | CCN1CCCC1CNC(=O)c1ccc(-c2ccc(/C=C3\SC(=S)NC3=O)o2)cc1 (stereo not shown) | 0.028 |  | > 10 | > 30 | 3.95 | > 10 | IC50 (MV-4-11): 0.21 µM
5 | NS(=O)(=O)c1ccc(-c2ccc(/C=C3\SC(=O)NC3=O)o2)cc1 |  |  |  |  |  |  | IC50 ([1]; PC3, Table 2, read-out: AB: PC3 IC50): > 10 µM; IC50 (recombinant PIM-1; Table 2): 0.051 µM; IC50 (recombinant human CK2; Table 2): 0.035 µM
6 | CCN(CC)CCNC(=O)c1cc(-c2ccc(/C=C3\SC(=S)NC3=O)o2)ccc1Cl | 0.002 | 0.01 | > 10 | > 10 | > 10 | > 10 | 
7 | COC(=O)c1cccc(-c2ccc(CC3SC(=S)NC3=O)o2)c1 (stereo not shown) | 0.006 | 0.003 | > 10 |  | > 10 | > 10 | IC50 (MV-4-11): > 10 µM
8 | CN1CCCN(c2cncc(-c3cccc(/C=C4\SC(=O)NC4=O)c3)n2)CC1 |  |  |  |  |  |  | IC50 (K-562; [3]): 0.076 µM; IC50 [1, 4]: 9.49 µM; IC50 (recombinant PIM-1; Table 4): 0.001 µM; IC50 (recombinant human CK2; Table 4): 0.003 µM
9 | CN1CCCN(c2cncc(-c3ccc(/C=C4\SC(=S)NC4=O)o3)n2)CC1 |  |  |  |  |  |  | IC50 [1, 4]: > 10 µM; IC50 (recombinant PIM-1; Table 4): 0.141 µM; IC50 (recombinant human CK2; Table 4): 0.018 µM
10 | COCCNC(=O)c1ccc(Cl)c(-c2ccc(/C=C3\SC(=S)NC3=O)o2)c1 | 0.003 | 0.01 | 7.62 | > 10 | > 10 | > 10 | 
11 | O=C1NC(=S)S/C1=C\c1ccc(-c2cccc(C(=O)Nn3cnnc3)c2)o1 | 0.047 | 0.281 | > 10 | > 30 | > 10 | > 10 | 
12 | CCN(CC)CCNC(=O)c1ccc(Cl)c(-c2ccc(/C=C3\SC(=S)NC3=O)o2)c1 | < 0.001 | 0.003 | 0.064 | > 10 |  | > 10 | IC50 (MV-4-11): < 0.03 µM
13 | CN1CCCN(c2cncc(-c3cccc(/C=C4\SC(=S)NC4=O)c3)n2)CC1 |  |  |  |  |  |  | IC50 (K-562; [3]): < 0.03 µM; IC50 [1, 4]: 3.46 µM; IC50 (recombinant PIM-1; Table 4): < 0.001 µM; IC50 (recombinant human CK2; Table 4): 0.001 µM
14 | CN1C(=O)NC(=O)/C1=C\c1ccc(-c2ccc(C(=O)O)cc2)o1 |  |  |  |  |  |  | IC50 (recombinant PIM-1; Table 3): 0.829 µM; IC50 (recombinant human CK2; Table 3): 0.216 µM
15 | CN1CCCN(c2cncc(-c3ccc(/C=C4\NC(=O)NC4=O)o3)n2)CC1 |  |  |  |  |  |  | IC50 (recombinant PIM-1; Table 4): 1.85 µM; IC50 (recombinant human CK2; Table 4): 0.229 µM
16 | CN1CCCN(C(=O)c2cccc(-c3ccc(/C=C4/NC(=O)NC4=O)o3)c2)CC1 |  |  |  |  |  |  | IC50 (recombinant PIM-1; Table 3): > 5 µM; IC50 (recombinant human CK2; Table 3): > 5 µM
17 | CN1CCCN(C(=O)c2ccc(-c3ccc(/C=C4\SC(=S)NC4=O)o3)cc2)CC1 | 0.025 |  | > 10 | > 30 | > 10 | > 10 | IC50 (MV-4-11): > 10 µM
18 | COCCNC(=O)c1cc(-c2ccc(/C=C3\SC(=S)NC3=O)o2)ccc1Cl | 0.042 | 0.054 | > 10 | > 10 | > 10 | > 10 | 
